Source: patent US11999718B2, “Pyrazole derivatives” (Aptabio Therapeutics Inc., priority 2021, dated 2024)

System: HL-60 cells differentiated into neutrophil cells
Assay: ROS production induced by PMA in HL-60 cells differentiated into neutrophil cells
Type: cell-based
Settings: Homo sapiens, 0.5 h; differentiated HL-60 cells, compounds 0.5 uM (0.5 mM in the source) for 30 minutes, 200 nM PMA, L-012 luminescence
Description: In order to confirm the effect of the compounds of Synthetic examples on ROS production from fibroblasts and specific substrate cells, ROS production was induced by stimulation of PMA (phorbol 12-myristate 13-acetate), TGF-β1, palmitate or high concentration-glucose, or the like, in HL-60 cells differentiated into neutrophil cells by DMSO treatment, NHLF (normal human lung fibroblast, Lonza), LX-2 (human hepatic stellate cells, Sigma), ARPE19 (human retinal pigment epithelial cell, ATCC), and KEL-FIB (Keloid fibroblast, ATCC) cells, and under this condition, the inhibitory effect of ROS production of the compounds of Synthetic Examples was observed.
HL-60 cells (human leukemia cells, ATCC) were suspended in a medium containing 1.25% DMSO (RPMI+10% FBS) and cultured under the condition of 5% CO2, 37° C. for 6 days, thereby inducing differentiation into neutrophil cells. […] Then, to each well comprising the cells and drug, 200 nM PMA was treated to induce ROS production, and such ROS production was measured by observing the luminescence level of each well using 100 μM L-012.

SMILES	inhibition at 0.5 µM
CCCN1CCN(C2CCc3nn(-c4ccccn4)c(O)c3C2)CC1 (centres unmarked) [Compound 100, 5-(4-Propylpiperazin-1-yl)-2-(pyridin-2-yl)-4,5,6,7-tetrahydro-2H-indazol-3-ol]	50 to 70%
CN(Cc1ccccc1Cl)C1CCc2nn(-c3ccccn3)c(O)c2C1 (centres unmarked) [Compound 6, 5-[(2-Chlorobenzyl)methylamino]-2-(pyridin-2-yl)-4,5,6,7-tetrahydro-2H-indazol-3-ol]	> 70%
CN(C)C/C=C/C(=O)N1CCN(C2CCc3nn(-c4ccccn4)c(O)c3C2)CC1 (centres unmarked) [Compound 98, (E)-4-(dimethylamino)-1-(4-(3-hydroxy-2-(pyridin-2-yl)-4,5,6,7-tetrahydro-2H-indazol-5-yl)piperazin-1-yl)but-2-en-1-one]	50 to 70%
CCN1CCN(C2CCc3nn(-c4ccccn4)c(O)c3C2)CC1 (centres unmarked) [Compound 91, 5-(4-Ethylpiperazin-1-yl)-2-(pyridin-2-yl)-4,5,6,7-tetrahydro-2H-indazol-3-ol]	50 to 70%
CN(Cc1cccc(F)c1)C1CCc2nn(-c3ccccn3)c(O)c2C1 (centres unmarked) [Compound 27, 5-[(3-Fluorobenzyl)methylamino]-2-(pyridin-2-yl)-4,5,6,7-tetrahydro-2H-indazol-3-ol]	30 to 50%
Oc1c2c(nn1-c1ccccn1)CCC(N(Cc1ccccc1)C1CC1)C2 (centres unmarked) [Compound 2, 5-(Benzylcyclopropylamino)-2-(pyridin-2-yl)-4,5,6,7-tetrahydro-2H-indazol-3-ol]	> 70%
Cc1ccc(N2CCN(C3CCc4nn(-c5ccccn5)c(O)c4C3)CC2)cc1 (centres unmarked) [Compound 126, 2-(Pyridin-2-yl)-5-(4-(p-tolyl)piperazin-1-yl)-4,5,6,7-tetrahydro-2H-indazol-3-ol]	> 70%
CN1CCN(C2CCc3nn(-c4ccc(Cl)cc4)c(O)c3C2)CC1 (centres unmarked) [Compound 94, 2-(4-Chlorophenyl)-5-(4-methylpiperazin-1-yl)-4,5,6,7-tetrahydro-2H-indazol-3-ol]	> 70%
CS(=O)(=O)c1ccc(N2CCN(C3CCc4nn(-c5ccccn5)c(O)c4C3)CC2)cc1 (centres unmarked) [Compound 131, 5-(4-(4-(Methylsulfonyl)phenyl)piperazin-1-yl)-2-(pyridin-2-yl)-4,5,6,7-tetrahydro-2H-indazol-3-ol]	> 70%
Oc1c2c(nn1-c1ccccn1)CCC(N1CCCC1)C2 (centres unmarked) [Compound 96, 2-(Pyridin-2-yl)-5-(pyrrolidin-1-yl)-4,5,6,7-tetrahydro-2H-indazol-3-ol]	50 to 70%
CN(Cc1cccc(Cl)c1)C1CCc2nn(-c3ccccn3)c(O)c2C1 (centres unmarked) [Compound 7, 5-[(3-Chlorobenzyl)methylamino]-2-(pyridin-2-yl)-4,5,6,7-tetrahydro-2H-indazol-3-ol]	> 70%
CN(Cc1ccc(Cl)cc1)C1CCc2nn(-c3ccccn3)c(O)c2C1 (centres unmarked) [Compound 19, 5-[(4-Chlorobenzyl)methylamino]-2-(pyridin-2-yl)-4,5,6,7-tetrahydro-2H-indazol-3-ol]	> 70%
Oc1c2c(nn1-c1ccccn1)CCC(N1CCN(Cc3ccccn3)CC1)C2 (centres unmarked) [Compound 87, 2-(Pyridin-2-yl)-5-(4-(pyridin-2-ylmethyl)piperazin-1-yl)-4,5,6,7-tetrahydro-2H-indazol-3-ol]	50 to 70%
C=CC(=O)N1CCN(C2CCc3nn(-c4ccccn4)c(O)c3C2)CC1 (centres unmarked) [Compound 97, 1-(4-(3-Hydroxy-2-(pyridin-2-yl)-4,5,6,7-tetrahydro-2H-indazol-5-yl)piperazin-1-yl)prop-2-en-1-one]	50 to 70%
CCCCN(Cc1ccccc1)C1CCc2nn(-c3ccccn3)c(O)c2C1 (centres unmarked) [Compound 22, 5-(Benzylbutylamino)-2-(pyridin-2-yl)-4,5,6,7-tetrahydro-2H-indazol-3-ol]	< 30%
Oc1c2c(nn1-c1ccccn1)CCC(Nc1ccccc1)C2 (centres unmarked) [Compound 92, 5-(Phenylamino)-2-(pyridin-2-yl)-4,5,6,7-tetrahydro-2H-indazol-3-ol]	30 to 50%
COc1ccc(CNC2CCc3nn(-c4ccccn4)c(O)c3C2)cc1 (centres unmarked) [Compound 88, 5-((4-Methoxybenzyl)amino)-2-(pyridin-2-yl)-4,5,6,7-tetrahydro-2H-indazol-3-ol]	50 to 70%
CN(Cc1ccccc1C(F)(F)F)C1CCc2nn(-c3ccccn3)c(O)c2C1 (centres unmarked) [Compound 11, 5-[Methyl-(2-trifluoromethylbenzyl)-amino]-2-pyridin-2-yl-4,5,6,7-tetrahydro-2H-indazol-3-ol]	< 30%
CN1CCN(C2CCc3nn(-c4cccc(Cl)n4)c(O)c3C2)CC1 (centres unmarked) [Compound 83, 2-(6-Chloropyridin-2-yl)-5-(4-methylpiperazin-1-yl)-4,5,6,7-tetrahydro-2H-indazol-3-ol]	> 70%

SMILES	inhibition at 0.5 µM
CN1CCN(C2CCc3nn(-c4ncccn4)c(O)c3C2)CC1 (centres unmarked) [Compound 108, 5-(4-Methylpiperazin-1-yl)-2-(pyrimidin-2-yl)-4,5,6,7-tetrahydro-2H-indazol-3-ol]	> 70%
Cc1cccc(CN(C)C2CCc3nn(-c4ccccn4)c(O)c3C2)c1 (centres unmarked) [Compound 9, 5-[Methyl-(3-methylbenzyl)amino]-2-(pyridin-2-yl)-4,5,6,7-tetrahydro-2H-indazol-3-ol]	50 to 70%
CN(C)c1ccccc1CN(C)C1CCc2nn(-c3ccccn3)c(O)c2C1 (centres unmarked) [Compound 71, 5-[(2-Dimethylamino)benzylmethylamino]-2-(pyridin-2-yl)-4,5,6,7-tetrahydro-2H-indazol-3-ol]	50 to 70%
CN(Cc1ccc(C#N)cc1)C1CCc2nn(-c3ccccn3)c(O)c2C1 (centres unmarked) [Compound 3, 4-{[(3-Hydroxy-2-(pyridin-2-yl)-4,5,6,7-tetrahydro-2H-indazol-5-yl)methylamino]methyl}benzonitrile]	> 70%
CN1CCN(C2CCc3nn(-c4ncccc4F)c(O)c3C2)CC1 (centres unmarked) [Compound 86, 2-(3-Fluoropyridin-2-yl)-5-(4-methylpiperazin-1-yl)-4,5,6,7-tetrahydro-2H-indazol-3-ol]	30 to 50%
Oc1c2c(nn1-c1ccccn1)CCC(N1CCN(CC3CCCCC3)CC1)C2 (centres unmarked) [Compound 106, 5-(4-(Cyclohexylmethyl)piperazin-1-yl)-2-(pyridin-2-yl)-4,5,6,7-tetrahydro-2H-indazol-3-ol]	> 70%
CC#CC(=O)N1CCN(C2CCc3nn(-c4ccccn4)c(O)c3C2)CC1 (centres unmarked) [Compound 89]	> 70%
Oc1c2c(nn1-c1ccccn1)CCC(N1CCOCC1)C2 (centres unmarked) [Compound 15, 5-Morpholino-4-yl-2-(pyridin-2-yl)-4,5,6,7-tetrahydro-2H-indazol-3-ol]	> 70%
CN(C)c1ccc(CN(C)C2CCc3nn(-c4ccccn4)c(O)c3C2)cc1 (centres unmarked) [Compound 70, 5-[(4-Dimethylamino)benzylmethylamino]-2-(pyridin-2-yl)-4,5,6,7-tetrahydro-2H-indazol-3-ol]	30 to 50%
Cc1cc(C(F)(F)F)cc(-n2nc3c(c2O)CC(N2CCN(C)CC2)CC3)n1 (centres unmarked) [Compound 84, 2-(6-Methyl-4-(trifluoromethyl)pyridin-2-yl)-5-(4-methylpiperazin-1-yl)-4,5,6,7-tetrahydro-2H-indazol-3-ol]	50 to 70%
CN(Cc1ccc(F)cc1)C1CCc2nn(-c3ccccn3)c(O)c2C1 (centres unmarked) [Compound 4, 5-[(4-Fluorobenzyl)methylamino]-2-(pyridin-2-yl)-4,5,6,7-tetrahydro-2H-indazol-3-ol]	> 70%
CN(Cc1ccc(C(F)(F)F)cc1)C1CCc2nn(-c3ccccn3)c(O)c2C1 (centres unmarked) [Compound 8, 5-[Methyl-(4-trifluoromethylbenzyl)amino]-2-pyridin-2-yl-4,5,6,7-tetrahydro-2H-indazol-3-ol]	< 30%
CN(C)C/C=C/C(=O)N(C)C1CCc2nn(-c3ccccn3)c(O)c2C1 (centres unmarked) [Compound 99, (E)-4-(dimethylamino)-N-(3-hydroxy-2-(pyridin-2-yl)-4,5,6,7-tetrahydro-2H-indazol-5-yl)-N-methylbut-2-enamide]	50 to 70%
Oc1c2c(nn1-c1ccccn1)CCC(N1CCN(Cc3ccccc3)CC1)C2 (centres unmarked) [Compound 105, 5-(4-Benzylpiperazin-1-yl)-2-(pyridin-2-yl)-4,5,6,7-tetrahydro-2H-indazol-3-ol]	> 70%
CN1CCN(C2CCc3nn(-c4ccc(C(F)(F)F)cc4)c(O)c3C2)CC1 (centres unmarked) [Compound 95, 5-(4-Methylpiperazin-1-yl)-2-(4-(trifluoromethyl)phenyl)-4,5,6,7-tetrahydro-2H-indazol-3-ol]	50 to 70%
CN(Cc1cccc(C#N)c1)C1CCc2nn(-c3ccccn3)c(O)c2C1 (centres unmarked) [Compound 25, 3-{[(3-Hydroxy-2-(pyridin-2-yl)-4,5,6,7-tetrahydro-2H-indazol-5-yl)methylamino]methyl}benzonitrile]	30 to 50%
Oc1c2c(nn1-c1ccccn1)CCC(N1CCN(CCCc3ccccc3)CC1)C2 (centres unmarked) [Compound 107, 5-(4-(3-Phenylpropyl)piperazin-1-yl)-2-(pyridin-2-yl)-4,5,6,7-tetrahydro-2H-indazol-3-ol]	> 70%
CN1CCN(C2CCc3nn(-c4ccc(C#N)cc4)c(O)c3C2)CC1 (centres unmarked) [Compound 103, 4-(3-Hydroxy-5-(4-methylpiperazin-1-yl)-4,5,6,7-tetrahydro-2H-indazol-2-yl)benzonitrile]	> 70%
Oc1c2c(nn1-c1ccccn1)CCC(N1CCc3ccccc3C1)C2 (centres unmarked) [Compound 18, 5-(3,4-Dihydro-1H-isoquinolin-2-yl)-2-(pyridin-2-yl)-4,5,6,7-tetrahydro-2H-indazol-3-ol]	> 70%
